Test results published in patent US20090304827A1, “Combinations of Ingredients Having Synergistic Anti-Inflammatory Effects” (priority 2008, published 2009).

Columns and labels:
[1] = tested on: LPS-induced PGE2 production; settings: cited from earlier work
iNOS = settings: cited from earlier work
[2] = tested on: LPS-induced NO production; settings: cited from earlier work
[3] = tested on: LPS-induced nitrite (NO) generation on murine macrophage RAW264.7 cells; experiment: Nitrite assay: LPS-induced nitrite (NO) generation, Griess reaction; type: cell-based; settings: either singly or in combination
Excerpt: The term “synergy” refers to the phenomenon in which the combination of two or more discrete agents acting together can cause a greater response than simply the sum of the individual effects of each agent if they were used separately. It is not uncommon to find the presence of two or more chemical constituents or herbs on an organism to be greater than the effect of each chemical constituent or herb individually, or the sum of the individual effects. […]
The nitrite concentration in the medium was measured as an indicator of NO production, a common phenomenon of the inflammation process, according to the Griess reaction. […] One hundred microliters of supernatant was mixed with the same volume of Griess reagent (1% sulfanilamide in 5% phosphoric acid and 0.1% naphthylethylenediamine dihydrocholide in water); absorbance of the mixture at 550 nm was determined with an ELISA plate reader (Dynatech MR-7000; Dynatech Laboratories Inc.).
Various combinations of herbal extracts were investigated for anti-inflammatory effect using nitrite assay. For the study, RAW 264.7 cells were treated with LPS (10 μg/mL) to induce nitrite production, various concentrations and combinations thereof were added, and the nitrite concentration in the medium was measured as an indicator of the inhibition of NO production, a common phenomenon of the inflammation process.

[4] = tested on: RAW 264.7 cells activated with bacterial lipopolysaccharide; settings: LPS 50 ng ml^−1; cited from earlier work

| Compound | COX-2 gene expression / activation [1] | LPS-induced PGE2 production [1] | iNOS enzyme activity (iNOS) | LPS-induced NO production [2] | iNOS gene expression / activation [2] | anti-inflammatory property (inhibition of NO production) [3] | NO generation in activated macrophages (nitrite released into the culture medium) [4] | amount of cytosolic iNOS protein and steady state mRNA levels [4] |
| --- | --- | --- | --- | --- | --- | --- | --- | --- |
| O=C(O)[C@H]1O[C@@H](Oc2cc3oc(-c4ccccc4)cc(=O)c3c(O)c2O)[C@H](O)[C@@H](O)[C@@H]1O [Baicalin] | not | not | did not inhibit | significantly inhibited | significantly inhibited | – | – | – |
| O=C1O[C@H]([C@@H](O)CO)C(O)=C1O [Vitamin C, L-ascorbate] | – | – | – | – | – | did not show any noticeable anti-inflammatory property | – | – |
| O=c1cc(-c2ccccc2)oc2cc(O)c(O)c(O)c12 [baicalein] | not | not | did not inhibit | significantly inhibited | significantly inhibited | – | – | – |
| COc1c(O)cc(O)c2c(=O)cc(-c3ccccc3)oc12 [wogonin] | inhibited | inhibited | did not inhibit | significantly inhibited | significantly inhibited | – | – | – |
| Oc1ccc(C=Cc2cc(O)cc(O)c2)cc1 [Resveratrol] | – | – | – | – | – | – | strongly to inhibit | strongly reduced |
| Tocopherol [vitamin E] | – | – | – | – | – | did not show any noticeable anti-inflammatory property | – | – |
| COc1c(O)cc2oc(-c3ccccc3)cc(=O)c2c1O [Oroxylin A] | blocking | potent inhibitor | – | potent inhibitor | blocking | – | – | – |
